# Laboratory results taken from patent publication US6967100B2, “Pancreatic islet cell growth factors” (The Walter and Eliza Hall Institute of Medical Research, priority 2000, dated 2005).
# Experiments:
# [1] = test system: 13.5 dpc fetal mouse pancreas cells; assay: Low cell density serum-free culture of 13.5 dpc fetal mouse pancreatic cells: total and insulin-positive β cell number; assay type: cell-based; conditions: for laminin-1 induced/mediated β cell differentiation: with laminin-1, four days
# Experimental: (§1) Dissociated fetal pancreas cells were prepared from 13.5 dpc CBA mice. Pregnant mice at 13.5 dpc were killed by cervical dislocation and fetuses collected into ice cold sterile mouse tonicity phosphate-buffered saline (MTPBS). Fetal pancreata were harvested under an Olympus dissection microscope into RPMI 1640 medium and dissociated in a shaking water bath at 37° C. for 11 mins in Ca^2+/Mg^2+-free PBS containing 0.5% v/v trypsin/EDTA as described for testis by Bucci et al. (1986). After dissociation, trypsin was inactivated by addition of 8% w/v bovine serum albumin (BSA, fraction V) (Sigma, St. Louis, USA). The tissue was aspirated several times in a pipette, passed through a 27 gauge needle to make a single cell suspension and then rinsed in 10 μg/ml DNAse I (Promega, Madison, USA) in RPMI 1640 for 10 mins to reduce cellular aggregates. Cell suspensions were filtered through a 70-100 μm steel mesh, centrifuged at 400×g for 5 mins and the supernatant discarded. The cell pellet was resuspended in HYBRIDOMA medium and stored on ice. Cells were counted under a haemocytometer and viability was determined by exclusion of 0.2% v/v trypan blue dye. Pancreatic cells were plated in 8 chamber slides (Nunc) at 1.5×10^4 cells/well in 0.3 ml HYBRIDOMA medium 500 UI/ml penicillin and 500 μg/ml streptomycin. The cells were cultured in 10% v/v CO2, 90% v/v air at 37° C. with 100% humidity for four days in the presence of factors such as laminin-1 and BMPs.
# Fetuses at 15.5 and 18.5 dpc from homozygous (−/−) or heterozygous (+/−) α6 integrin gene targeted (Georges-Labouesse et al., 1996) or wild type mice were fixed overnight in Bouin ? s solution. After standard dehydration processing, fetuses were embedded into paraffin and sectioned at 7 μm. Cultured pancreatic cells were washed three times with warm mouse tonicity phosphate buffered saline (MT-PBS) and fixed with 4% paraformaldehyde (PFA) for 10 mins. Endogenous peroxidase was blocked by 3% v/v H2O2 in methanol for 8 mins. Prior to antibody staining, non-specific protein binding was blocked by incubation for at least 30 mins with MT-PBS containing 2% w/v bovine serum albumin or 2% v/v normal rabbit serum. Controls were performed by replacing first antibody with pre-immune serum from the appropriate species. Cell were incubated with primary antibodies for 90 mins at room temperature, followed by three thorough washes with MT-PBS. Horseradish peroxidase-conjugated rabbit anti-guinea pig or swine anti-rabbit immunoglobulins (Dako) were added for 30 mins at room temperature followed by thorough washes. Immunoperoxidase was detected with 3,3′-diamninobenzidine/H2O2 for 4-8 mins, and slides were counterstained with haematoxylin.
# Immunoperoxidase positive and negative cells were quantitated in the central strip of each culture chamber (a 90×90 mm square) under a microscope equipped with an eyepiece graticule (Olympus, Japan) at ×40 power and calibrated with a micrometer (Olympus). All data are presented as mean±s.e.m of at least three independent experiments.
# [2] = test system: 13.5 dpc fetal mouse pancreas cells; assay: Colony formation of 13.5 dpc fetal mouse pancreas cells cultured with BMPs and laminin-1; assay type: cell-based; conditions: 13.5 dpc fetal pancreas cells
# Experimental: as §1
# (§2) After four days in culture, cells were washed twice with warm MT-PBS and fixed with a 4% v/v paraformaldehye for 10 mins. In some cases, 100 μM BrdU was added to label proliferating cells 12 hours before fixation and detection with monoclonal antibody to BrdU and FITC-labelled rabbit anti-mouse immunoglobulin. For immunoperoxidase staining, endogenous peroxidase was blocked by 3% v/v H2O2 in methanol for 8 mins and, prior to addition of primary antibody, non-specific protein binding was blocked by incubation for at least 30 mins in MTPBS containing 2% w/v BSA or 2% v/v normal rabbit serum. Controls were performed by replacing primary antibody with pre-immune serum from the appropriate species. Tissue sections or cells were incubated with primary antibodies for 90 min RT, followed by three thorough washes with MTPBS. For immunoperoxidase staining, horseradish peroxidase-conjugated rabbit anti-guinea pig, swine anti-rabbit or rabbit anti-mouse immunoglobulins (Dako) diluted 1:80 were added for 30 mins at RT followed by thorough washes; colour was developed with 3,3′-diaminobenzidine/H2O2 for 4-8 mins and slides counterstained with haematoxylin.
# A pancreatic cell colony was defined as a spherical collection of 20 cells. Colonies were counted under a×10 power objective with an eyepiece graticule.
# [3] = test system: E15.5 CBA mouse fetal pancreas cells; assay: Cystic colony formation of E15.5 fetal mouse pancreas cells in laminin-1 overlay culture; assay type: cell-based
# Experimental: Pancreata were dissected from embryonic day (E)15.5 CBA mouse fetuses and dissociated into single cells as described (Jiang et al., 1999). Briefly, dissected pancreas was digested with trypsin/EDTA for 15 minutes at 37° C. in a shaking water bath. Cells were counted in a haemocytometer and viability determined by trypan blue dye exclusion. Each fetal pancreas yielded 50,000 viable cells (48,509±11,299, n=14). Dissociated cells were plated in 8 well chamber slides (Nunc, Naperville, USA) at 7.5×10^4 cells/well in 0.3 ml AIM V medium supplemented with N-2 (1:100, Gibco BRL Life Technologies, Gaithersburg, USA), 500 UI/ml penicillin and 500 μg/ml streptomycin. Laminin-1 (160 μg/ml), purified from murine Engelbreth-Holm-Swarm tumor basement membrane (Becton Dickinson Labware, Bedford, USA), was overlayed on cells in the presence of various growth factors. Cultures were incubated in 10% CO2 90% air at 37° C., for up to 6 days. Recombinant human BMP 6 and BMP 5, recombinant human TGF-β1 and recombinant activin A were purchased from R&D Systems (Minneapolis, USA). These factors, dissolved at a concentration of 10 ng/μl in mouse tonicity phosphate buffered saline (PBS) containing 0.1% w/v bovine serum albumin (BSA), were added at the start of culture. Phase contrast images of colonies were photographed with Olympus IX70 digitized camera.
# Colony formation was assessed at day 6 of culture. A colony was defined as a cellular sphere ≧30 μm in diameter, which contained more than 20 cells. The number of colonies per well was counted directly under a inverted microscope at ×10. Colony counts were performed using a blind design.
# [4] = test system: 13.5 dpc fetal mouse pancreas cells; assay: BrdU labelling of proliferating cells in 13.5 dpc fetal mouse pancreas cell culture; assay type: cell-based; conditions: 100 μM BrdU, laminin-1 (200 μg/ml), with or without GoH3, days 1-4
# Experimental: as §2, with “For immunoperoxidase staining, horseradish peroxidase-conjugated rabbit anti-guinea pig, swine anti-rabbit or rabbit anti-mouse immunoglobulins (Dako) diluted 1:80 were added for 30 mins at RT followed by thorough washes; colour was developed with 3,3′-diaminobenzidine/H2O2 for 4-8 mins and slides counterstained with haematoxylin.” left out
# In some cultures, 100 μM BrdU (Sigma) was included to label proliferating cells; cells were fixed by 4% PFA at days 1, 2, 3 and 4 for insulin and BrdU double immunofluorescence staining. […] Slides were observed and photomicrographed under a Zeis Axiopot fluorescence microscope.
# α6 integrin and α-DG = assay: Indirect immunofluorescence for α6 integrin and α-DG expression in cultured fetal pancreas cells; assay type: cell-based, mouse; conditions: day 2 (laminin-1 alone: day 2 and four)
# Experimental: In some cultures, 100 μM BrdU (Sigma) was included to label proliferating cells; cells were fixed by 4% PFA at days 1, 2, 3 and 4 for insulin and BrdU double immunofluorescence staining. Fetuses were directly snap-frozen in liquid nitrogen, section at 8 μm, the sections air-dried for 40-60 mins and fixed in cold (−20° C.) acetone for 10 mins. Pre-treatment and primary antibody incubations were as described above, followed by incubation with Texas Red-conjugated goat anti-guinea pig immunoglobulins (Vector Laboratories, Burlingame, USA) or fluorescein isothiocyanate (FITC)-conjugated rabbit anti-mouse, -rat or -goat or swine anti-rabbit immunoglobulins (Dako) for 30 mins at room temperature and three thorough washes. Slides were observed and photomicrographed under a Zeis Axiopot fluorescence microscope.
molecule,measurement,setting,value
fibronectin,inhibition of pancreatic / β cell survival,"[1]; four days culture, compared to medium alone",no effect
C=C1[C@@H](C)[C@H]2[C@H](Cc3ccccc3)NC(=O)[C@]23[C@H](OC(C)=O)/C=C/[C@@](C)(O)C(=O)[C@@H](C)C/C=C/[C@H]3[C@@H]1O [Cytochalasin D],laminin-1 induced/mediated β cell differentiation,[1],increased
COc1cccc(-c2cc(=O)c3ccccc3o2)c1N [PD98059],laminin-1 induced/mediated β cell differentiation,[1],increased
gastrin,"proliferation or colony formation, candidate growth factors individually",[2],unable to promote proliferation or colony formation
heparin,effect on the GoH3-induced increase in β cell differentiation,"[1]; heparin at 100 μM, laminin-1 plus GoH3",blocked the effect of α6 integrin antibody GoH3
same,number of total and β cells,"[1]; with laminin-1, heparin at 100 μM, p<0.05",significantly decreased
PYY: candidate growth factor,"proliferation or colony formation, candidate growth factors individually",[2],unable to promote proliferation or colony formation
TGF-β1: recombinant human TGF-β1 from R&D Systems,BMP 6-induced colony formation,"[3]; 100 ng/ml against BMP 6 10 ng/ml, laminin-1 160 μg/ml, p<0.01 (FIG. 10B)",antagonized
same,colony formation relative to laminin-1 alone,"[3]; 100 ng/ml, laminin-1 160 μg/ml (FIG. 10A)",suppressed colony formation to levels below that observed with laminin-1 alone
same,potency of inhibition of BMP 6-induced colony numbers relative to Activin A,"[3]; dose-dependency of inhibition, BMP 6 10 ng/ml (FIG. 10C)",100 fold
laminin-1: heterotrimeric matrix glycoprotein prepared from murine Englebreth-Holm-Swarm tumour cell basement membrane,glucagon-positive cell number,[1]; in the presence of soluble laminin-1,unchanged
same,total cell number per well,"[1]; laminin-1 without or with 40 μg/ml GoH3, mean±s.e.m",4016±650
same,β cell number per well,"[1]; laminin-1 without or with 40 μg/ml GoH3, mean±s.e.m n=3",2265±240
same,increase in number of insulin-positive β cells,"[1]; soluble laminin-1, four days culture",60 fold
same,BrdU-positive cells,[4],2.5%
same,proportion of cells positive for both α6 integrin and α-DG,α6 integrin and α-DG,approximately 10%
CO[C@H]1[C@@H](OC)C[C@H](C)[C@@H](OC)C2=CC(=O)C=C(NC(=O)/C(C)=C/C=C\[C@H](OC)[C@@H](OC(N)=O)/C(C)=C/[C@@H]1C)C2=O [herbimycin A],laminin-1 induced/mediated β cell differentiation,[1],did not affect
"EGF: candidate growth factor (NSDSECPLSHDGYCLHDGVCMYIEALDKYACNCVVGYIGERCQYRDLKWWELR; Epidermal growth factor; UniProt P01133 971-1023, looked up)","proliferation or colony formation, candidate growth factors individually",[2],unable to promote proliferation or colony formation
O=c1c(-c2ccc(O)cc2)coc2cc(O)cc(O)c12 [genistein],laminin-1 induced/mediated β cell differentiation,[1],did not affect
HGF: candidate growth factor,"proliferation or colony formation, candidate growth factors individually",[2],unable to promote proliferation or colony formation
